In patent US11129801B2 (SigmaThera SAS, priority 2016, dated 2021) one finds DARPP32 positive neurons data, which are given here for two molecules.

For the assay, the system named is rat medium spiny neurons (DARPP32 positive neurons). The assay can be described thus: Survival of primary medium spiny neurons injured by glutamate. Particulars: glutamate 40 μM, 20 min. It is filed as cell-based. The procedure: Rat MSN of striatum were cultured as described (Ivkovic S, et al, (1999) The Journal of neuroscience: the official journal of the Society for Neuroscience 19(13): 5409-5419).
Briefly pregnant female rats of 15 days gestation were killed by cervical dislocation (Rats Wistar; Janvier) and the foetuses removed from the uterus. The embryonic midbrains were removed and placed in ice-cold medium of Leibovitz 15 (L15; PanBiotech, Ref P04-27055, Batch: 8810315) containing 2% of Penicillin-Streptomycin (PS; PanBiotech, ref: P06-07100, Batch: 7511015) and 1% of bovine serum albumin (BSA; PanBiotech, Ref: P06-1391100, Batch: H140904). Only the ventral portions of the mesencephalic flexure were used for the cell preparations as this region of the developing brain is rich in dopaminergic neurons. The midbrains were dissociated by trypsinisation for 20 minutes (min) at 37° C. (Trypsin EDTA 1×; PanBiotech, Ref: P10-023100, batch: 1670415). The reaction was stopped by the addition of Dulbecco's modified Eagle's medium (DMEM; PanBiotech, Ref: P04-03600, Batch: 9021115) containing DNase I grade II (0.1 mg/ml; PanBiotech, Ref: P60-37780100, Batch: H140508) and 10% of fetal calf serum (FCS; Invitrogen, Ref: 10270-098, Batch: 41G8542K). Cells were then mechanically dissociated by 3 passages through a 10 ml pipet. Cells were then centrifuged at 180×g for 10 min at 4° C. on a layer of BSA (3.5%) in L15 medium. The supernatant was discarded and the cell pellets were re-suspended in a defined culture medium consisting of Neurobasal (Invitrogen, Ref: 21103, Batch: 1754639) supplemented with B27 (2%; Invitrogen, ref: 17504, batch: 1799273), L-glutamine (2 mM; PanBiotech, Ref: P04-80100, Batch: 6620314) and 2% of PS. Viable cells were counted in a Neubauer cytometer using the trypan blue exclusion test. The cells were seeded at a density of 70000 cells/well in 96 well-plates (pre-coated with poly-D-lysine; Greiner, Ref: E150033VJ) and were cultured at 37° C. in a humidified air (95%)/CO2 (5%) atmosphere. Half of the medium was changed every 2 days with fresh medium. […]

In the case of `CCC(C/C=C/c1ccccc1)(c1ccccc1)N(C)CC1CC1` (single isomer, unassigned; (+)) [igmesine, (+)-(E)-N-(cyclopropylmethyl)-N-methyl-3,6-diphenylhex-5-en-3-amine], the DARPP32 positive neurons (0.3 μM) is listed as 89.28 % of the control and the DARPP32 positive neurons (1 μM) is reported as 81.60 % of the control.

B1: BDNF: Brain-derived neurotrophic factor, used as a reference compound (protein, UniProt P23560 19-247, looked up)
Neurotrophic factor BDNF …: APMKEANIRGQGGLAYPGVRTHGTLESVNGPKAGSRGLTSLADTFEHVIEELLDEDQKVRPNEENNKDADLYTSRVMLSSQVPLEPPLLFLLEEYKNYLDAANMSMRVRRHSDPARRGELSVCDSISEWVTAADKKTAVDMSGGTVTVLEKVPVSKGQLKQYFYETKCNPMGYTKEGCRGIDKRHWNSQCRTTQSYVRALTMDSKKRIGWRFIRIDTSCVCTLTIKRGR
Consider B1, for which the DARPP32 positive neurons (10 ng/mL) was 90.14 % of the control.
